Measured values as given in ChEMBL document CHEMBL4732086, “Targeting nuclear protein TDP-43 by cell division cycle kinase 7 inhibitors: A new therapeutic approach for amyotrophic lateral sclerosis” (Eur J Med Chem, 2021).
Activity calls are given as the source filed them. No cut-off for these calls is given here.

Assays:
[1] = biological target: Cyclin-dependent kinase 5/CDK5 activator 1 (Homo sapiens) (UniProt Q00535+Q15078); test: Inhibition of recombinant full length human GST/His-tagged CDK5/p35 using serine/threonine-12 peptide as substrate at 10 uM incubated for 60 mins in presence of ATP by Z'-LYTE assay; format: protein-complex assay
[2] = biological target: T1, Interleukin-1 receptor-associated kinase 4 (Homo sapiens) (UniProt Q9NWZ3); test: Inhibition of recombinant human full length His-tagged IRAK4 expressed in baculovirus expression system using serine/threonine-07 peptide as substrate at 10 uM incubated for 60 mins in presence of ATP by Z'-LYTE assay
T1 sequence (whole entry): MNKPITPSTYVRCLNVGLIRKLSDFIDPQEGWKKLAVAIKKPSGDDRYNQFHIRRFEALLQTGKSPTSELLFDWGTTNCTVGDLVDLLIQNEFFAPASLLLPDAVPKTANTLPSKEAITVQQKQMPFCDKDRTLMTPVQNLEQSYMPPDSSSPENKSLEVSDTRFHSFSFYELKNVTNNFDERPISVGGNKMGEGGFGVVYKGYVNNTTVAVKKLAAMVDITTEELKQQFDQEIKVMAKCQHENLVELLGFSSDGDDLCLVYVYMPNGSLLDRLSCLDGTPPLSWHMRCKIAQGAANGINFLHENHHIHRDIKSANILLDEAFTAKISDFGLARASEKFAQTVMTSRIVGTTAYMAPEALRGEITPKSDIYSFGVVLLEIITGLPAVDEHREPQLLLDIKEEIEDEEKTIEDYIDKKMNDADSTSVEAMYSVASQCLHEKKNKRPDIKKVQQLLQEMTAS

[3] = biological target: Serine/threonine-protein kinase MARK2 (Homo sapiens) (UniProt Q7KZI7); test: Inhibition of recombinant human full length GST-tagged MARK2 expressed in baculovirus expression system using serine/threonine-21 peptide as substrate at 10 uM by Z'-LYTE assay; settings: time 60.0 min
Chain of Serine/threonine-protein kinase MARK2 (Homo sapiens) (Q7KZI7 whole entry): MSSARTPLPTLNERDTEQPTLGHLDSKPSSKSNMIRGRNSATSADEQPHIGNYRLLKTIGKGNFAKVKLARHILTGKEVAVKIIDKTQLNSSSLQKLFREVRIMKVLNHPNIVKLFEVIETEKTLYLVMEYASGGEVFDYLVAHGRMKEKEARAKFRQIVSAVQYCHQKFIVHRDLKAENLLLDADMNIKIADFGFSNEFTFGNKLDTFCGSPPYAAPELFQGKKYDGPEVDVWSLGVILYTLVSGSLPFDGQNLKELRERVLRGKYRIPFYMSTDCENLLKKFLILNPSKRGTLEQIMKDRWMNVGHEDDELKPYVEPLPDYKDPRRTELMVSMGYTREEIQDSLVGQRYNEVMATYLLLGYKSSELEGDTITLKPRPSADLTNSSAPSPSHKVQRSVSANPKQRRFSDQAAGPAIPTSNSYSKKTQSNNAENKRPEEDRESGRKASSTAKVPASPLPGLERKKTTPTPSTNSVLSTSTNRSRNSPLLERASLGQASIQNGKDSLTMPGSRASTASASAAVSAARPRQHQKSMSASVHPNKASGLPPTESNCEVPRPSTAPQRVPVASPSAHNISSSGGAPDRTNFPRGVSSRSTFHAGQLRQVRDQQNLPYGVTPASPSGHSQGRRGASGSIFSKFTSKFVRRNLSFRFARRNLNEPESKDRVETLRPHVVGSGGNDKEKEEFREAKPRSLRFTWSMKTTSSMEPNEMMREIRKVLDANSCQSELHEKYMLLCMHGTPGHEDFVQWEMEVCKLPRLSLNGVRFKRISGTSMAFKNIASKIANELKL

[4] = biological target: Serine/threonine-protein kinase pim-2 (Homo sapiens) (UniProt Q9P1W9); test: Inhibition of recombinant human GST-tagged PIM2 expressed in baculovirus expression system using serine/threonine-07 peptide as substrate at 10 uM by Z'-LYTE assay; settings: time 60.0 min
Chain of Serine/threonine-protein kinase pim-2 (Homo sapiens) (Q9P1W9 whole entry, looked up): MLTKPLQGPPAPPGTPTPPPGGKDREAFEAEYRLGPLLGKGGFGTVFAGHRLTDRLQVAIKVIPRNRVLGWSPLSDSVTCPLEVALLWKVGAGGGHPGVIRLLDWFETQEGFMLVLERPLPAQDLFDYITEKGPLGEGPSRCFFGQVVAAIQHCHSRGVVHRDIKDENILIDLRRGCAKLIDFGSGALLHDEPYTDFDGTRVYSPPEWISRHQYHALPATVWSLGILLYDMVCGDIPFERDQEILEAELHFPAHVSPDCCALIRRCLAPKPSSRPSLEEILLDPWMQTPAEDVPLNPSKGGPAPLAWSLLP

[5] = biological target: CDC7/DBF4 (Cell division cycle 7-related protein kinase/Activator of S phase kinase) (Homo sapiens, UniProt O00311); test: Inhibition of recombinant human CDC7/Dbf4 expressed in baculovirus infected Sf9 insect cells assessed as inhibition of fluorescein labelled substrate phosphorylation in presence of ATP measured after 60 mins by TR-FRET assay
Chain of CDC7/DBF4 (Cell division cycle 7-related protein kinase/Activator of S phase kinase) (Q9UBU7 whole entry): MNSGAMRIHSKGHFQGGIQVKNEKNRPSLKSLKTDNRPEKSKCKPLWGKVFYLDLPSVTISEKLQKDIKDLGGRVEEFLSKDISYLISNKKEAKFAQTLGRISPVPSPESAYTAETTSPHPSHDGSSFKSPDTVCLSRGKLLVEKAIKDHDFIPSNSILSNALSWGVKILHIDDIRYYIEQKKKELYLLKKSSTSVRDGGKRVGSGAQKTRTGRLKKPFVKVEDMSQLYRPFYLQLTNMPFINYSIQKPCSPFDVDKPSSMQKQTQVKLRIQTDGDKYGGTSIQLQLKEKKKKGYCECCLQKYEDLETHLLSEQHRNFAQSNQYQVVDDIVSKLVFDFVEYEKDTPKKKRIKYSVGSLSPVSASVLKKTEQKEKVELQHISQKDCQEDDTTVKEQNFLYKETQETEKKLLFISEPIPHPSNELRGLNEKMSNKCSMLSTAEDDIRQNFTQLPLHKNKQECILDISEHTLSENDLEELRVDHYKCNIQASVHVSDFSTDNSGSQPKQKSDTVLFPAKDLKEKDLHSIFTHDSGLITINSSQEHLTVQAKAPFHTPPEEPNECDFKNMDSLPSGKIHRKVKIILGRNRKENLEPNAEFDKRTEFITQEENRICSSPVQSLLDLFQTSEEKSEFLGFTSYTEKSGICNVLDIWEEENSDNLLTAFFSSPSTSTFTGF
Chain of CDC7/DBF4 (Cell division cycle 7-related protein kinase/Activator of S phase kinase) (O00311 whole entry): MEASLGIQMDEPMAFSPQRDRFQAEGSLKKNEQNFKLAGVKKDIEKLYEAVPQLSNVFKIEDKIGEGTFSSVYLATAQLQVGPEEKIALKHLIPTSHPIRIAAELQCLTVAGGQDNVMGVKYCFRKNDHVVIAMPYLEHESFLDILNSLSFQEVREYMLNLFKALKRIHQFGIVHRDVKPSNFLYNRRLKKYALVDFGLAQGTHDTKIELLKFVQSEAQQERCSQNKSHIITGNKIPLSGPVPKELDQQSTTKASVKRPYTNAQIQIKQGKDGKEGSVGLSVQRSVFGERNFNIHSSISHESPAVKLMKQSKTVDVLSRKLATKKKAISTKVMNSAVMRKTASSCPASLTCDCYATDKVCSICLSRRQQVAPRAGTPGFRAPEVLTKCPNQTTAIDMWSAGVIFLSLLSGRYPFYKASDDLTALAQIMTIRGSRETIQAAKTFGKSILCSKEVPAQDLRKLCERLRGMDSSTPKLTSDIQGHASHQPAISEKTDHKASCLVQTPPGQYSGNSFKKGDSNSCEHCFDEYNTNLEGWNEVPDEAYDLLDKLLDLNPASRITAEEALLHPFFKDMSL

[6] = biological target: T2, Mitogen-activated protein kinase 12 (Homo sapiens) (UniProt P53778); test: Inhibition of recombinant human full length His-tagged MAPK12 expressed in baculovirus expression system using serine/threonine-03 peptide as substrate at 10 uM incubated for 60 mins in presence of ATP by Z'-LYTE assay
T2 sequence (whole entry): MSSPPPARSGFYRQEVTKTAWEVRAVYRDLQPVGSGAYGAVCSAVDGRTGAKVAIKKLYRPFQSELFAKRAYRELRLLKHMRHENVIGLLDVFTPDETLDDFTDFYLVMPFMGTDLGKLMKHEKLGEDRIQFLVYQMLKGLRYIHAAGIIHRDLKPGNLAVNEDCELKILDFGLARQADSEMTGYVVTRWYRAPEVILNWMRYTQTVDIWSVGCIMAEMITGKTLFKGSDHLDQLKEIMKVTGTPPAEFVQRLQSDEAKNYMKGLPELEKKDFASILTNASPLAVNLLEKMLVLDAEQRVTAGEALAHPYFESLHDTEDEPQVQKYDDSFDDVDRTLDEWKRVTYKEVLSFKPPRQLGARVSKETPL

[7] = biological target: Dual specificity tyrosine-phosphorylation-regulated kinase 1A (Homo sapiens) (UniProt Q13627); test: Inhibition of recombinant human full length GST-tagged DYRK1A expressed in baculovirus expression system using serine/threonine-18 peptide as substrate at 10 uM incubated for 60 mins in presence of ATP by Z'-LYTE assay
[8] = biological target: Rho-associated protein kinase 1 (Homo sapiens) (UniProt Q13464); test: Inhibition of recombinant human GST-tagged ROCK1 expressed in baculovirus expression system using serine/threonine-07 peptide as substrate at 10 uM by Z'-LYTE assay; settings: time 60.0 min
[9] = biological target: Tyrosine-protein kinase ABL1 (Homo sapiens) (UniProt P00519); test: Inhibition of recombinant full length human His-tagged ABL1 expressed in baculovirus expression system using tyrosine-2 peptide as substrate at 10 uM incubated for 60 mins in presence of ATP by Z'-LYTE assay
[10] = biological target: Vascular endothelial growth factor receptor 2 (Homo sapiens) (UniProt P35968); test: Inhibition of recombinant human His-tagged KDR expressed in baculovirus expression system using Tyr-01 peptide as substrate at 10 uM incubated for 60 mins in presence of ATP by Z'-LYTE assay
Chain of Vascular endothelial growth factor receptor 2 (Homo sapiens) (P35968 whole entry): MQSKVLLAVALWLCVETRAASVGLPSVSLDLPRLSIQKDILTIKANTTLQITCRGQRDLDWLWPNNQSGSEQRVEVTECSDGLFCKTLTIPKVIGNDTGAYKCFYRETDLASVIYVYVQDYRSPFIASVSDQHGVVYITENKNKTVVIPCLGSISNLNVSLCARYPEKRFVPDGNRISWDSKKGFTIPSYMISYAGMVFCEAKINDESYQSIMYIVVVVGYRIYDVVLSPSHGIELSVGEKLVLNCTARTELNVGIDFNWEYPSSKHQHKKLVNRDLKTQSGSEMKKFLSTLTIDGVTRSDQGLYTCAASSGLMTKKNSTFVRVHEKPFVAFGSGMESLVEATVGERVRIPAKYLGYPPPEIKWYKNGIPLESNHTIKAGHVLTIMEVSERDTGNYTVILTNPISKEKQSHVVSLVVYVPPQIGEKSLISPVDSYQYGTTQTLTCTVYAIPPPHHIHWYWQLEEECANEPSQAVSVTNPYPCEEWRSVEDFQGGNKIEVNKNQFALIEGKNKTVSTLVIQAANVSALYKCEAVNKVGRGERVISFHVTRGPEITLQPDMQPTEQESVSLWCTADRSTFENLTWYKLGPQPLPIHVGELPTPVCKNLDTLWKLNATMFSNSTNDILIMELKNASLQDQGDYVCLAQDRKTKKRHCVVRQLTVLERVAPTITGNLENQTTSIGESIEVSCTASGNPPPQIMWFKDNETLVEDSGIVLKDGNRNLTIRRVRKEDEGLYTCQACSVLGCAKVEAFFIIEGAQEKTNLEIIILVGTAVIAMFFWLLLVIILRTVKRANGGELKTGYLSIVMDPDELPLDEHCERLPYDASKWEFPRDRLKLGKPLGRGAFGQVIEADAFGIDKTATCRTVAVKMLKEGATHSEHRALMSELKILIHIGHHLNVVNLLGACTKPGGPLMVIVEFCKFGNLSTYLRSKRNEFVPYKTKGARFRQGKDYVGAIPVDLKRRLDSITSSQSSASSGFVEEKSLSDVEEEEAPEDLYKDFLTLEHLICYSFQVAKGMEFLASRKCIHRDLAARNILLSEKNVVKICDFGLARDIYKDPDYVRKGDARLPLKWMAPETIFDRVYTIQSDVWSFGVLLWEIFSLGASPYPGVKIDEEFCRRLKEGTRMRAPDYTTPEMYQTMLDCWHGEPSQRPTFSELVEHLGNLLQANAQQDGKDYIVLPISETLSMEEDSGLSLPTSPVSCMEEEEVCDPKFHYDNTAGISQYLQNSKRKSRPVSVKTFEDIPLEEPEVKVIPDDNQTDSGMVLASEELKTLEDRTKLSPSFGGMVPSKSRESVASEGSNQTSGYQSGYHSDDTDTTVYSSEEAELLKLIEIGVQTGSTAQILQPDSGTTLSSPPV

[11] = biological target: CDC7/DBF4 (Cell division cycle 7-related protein kinase/Activator of S phase kinase) (Homo sapiens) (UniProt Q9UBU7+O00311); test: Inhibition of recombinant human GST tagged CDC7/Dbf4 expressed in baculovirus expression system at 10 uM by Z'-LYTE assay
Chain of CDC7/DBF4 (Cell division cycle 7-related protein kinase/Activator of S phase kinase) (Homo sapiens) (O00311 whole entry, looked up): as the sequence (O00311 whole entry) above
Chain of CDC7/DBF4 (Cell division cycle 7-related protein kinase/Activator of S phase kinase) (Homo sapiens) (Q9UBU7 whole entry, looked up): as the sequence (Q9UBU7 whole entry) above

[12] = biological target: T3, Mitogen-activated protein kinase 13 (Homo sapiens) (UniProt O15264); test: Inhibition of recombinant human full length His-tagged MAPK13 expressed in baculovirus expression system using serine/threonine-03 peptide as substrate at 10 uM incubated for 60 mins in presence of ATP by Z'-LYTE assay
T3 sequence (whole entry): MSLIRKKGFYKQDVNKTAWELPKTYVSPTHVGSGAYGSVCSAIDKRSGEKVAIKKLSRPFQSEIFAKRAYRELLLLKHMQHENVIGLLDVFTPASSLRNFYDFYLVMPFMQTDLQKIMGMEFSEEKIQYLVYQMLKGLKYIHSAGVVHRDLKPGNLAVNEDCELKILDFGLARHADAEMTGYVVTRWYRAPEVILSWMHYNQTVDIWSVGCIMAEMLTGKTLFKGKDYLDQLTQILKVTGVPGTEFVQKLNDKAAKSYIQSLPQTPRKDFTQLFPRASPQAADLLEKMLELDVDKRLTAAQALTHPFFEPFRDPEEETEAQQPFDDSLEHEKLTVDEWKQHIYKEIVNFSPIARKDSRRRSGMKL

[13] = biological target: Maternal embryonic leucine zipper kinase (Homo sapiens) (UniProt Q14680); test: Inhibition of recombinant human full length GST-tagged MELK expressed in baculovirus expression system using serine/threonine-21 peptide as substrate at 10 uM by Z'-LYTE assay; settings: time 60.0 min
Chain of Maternal embryonic leucine zipper kinase (Homo sapiens) (Q14680 whole entry, looked up): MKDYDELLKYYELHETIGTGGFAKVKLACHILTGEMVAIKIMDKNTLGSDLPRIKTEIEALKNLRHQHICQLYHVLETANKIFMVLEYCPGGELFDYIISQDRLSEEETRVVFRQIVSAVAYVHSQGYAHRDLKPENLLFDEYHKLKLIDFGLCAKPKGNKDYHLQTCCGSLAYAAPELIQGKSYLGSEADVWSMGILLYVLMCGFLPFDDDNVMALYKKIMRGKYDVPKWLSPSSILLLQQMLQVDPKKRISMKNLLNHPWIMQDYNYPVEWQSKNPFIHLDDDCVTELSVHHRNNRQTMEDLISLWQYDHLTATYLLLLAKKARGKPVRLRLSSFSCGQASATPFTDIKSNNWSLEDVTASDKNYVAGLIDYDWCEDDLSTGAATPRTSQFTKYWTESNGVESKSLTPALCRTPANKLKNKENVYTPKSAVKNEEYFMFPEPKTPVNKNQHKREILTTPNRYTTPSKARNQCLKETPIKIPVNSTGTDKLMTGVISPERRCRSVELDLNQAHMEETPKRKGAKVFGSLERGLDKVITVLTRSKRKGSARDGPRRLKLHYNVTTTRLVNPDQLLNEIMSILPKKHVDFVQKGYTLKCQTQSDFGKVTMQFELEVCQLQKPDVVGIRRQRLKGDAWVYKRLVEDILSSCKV

[14] = biological target: Aurora kinase B (Homo sapiens) (UniProt Q96GD4); test: Inhibition of recombinant full length His-tagged human AURKB expressed in baculovirus expression system using Ser/Thr-01 peptide as substrate at 10 uM incubated for 60 mins in presence of ATP by Z'-LYTE assay
[15] = biological target: Casein kinase I isoform epsilon (Homo sapiens) (UniProt P49674); test: Inhibition of human CSNK1E expressed in baculovirus expression system using serine/threonine-11 peptide as substrate at 10 uM incubated for 60 mins in presence of ATP by Z'-LYTE assay
Chain of Casein kinase I isoform epsilon (Homo sapiens) (P49674 whole entry, looked up, canonical isoform): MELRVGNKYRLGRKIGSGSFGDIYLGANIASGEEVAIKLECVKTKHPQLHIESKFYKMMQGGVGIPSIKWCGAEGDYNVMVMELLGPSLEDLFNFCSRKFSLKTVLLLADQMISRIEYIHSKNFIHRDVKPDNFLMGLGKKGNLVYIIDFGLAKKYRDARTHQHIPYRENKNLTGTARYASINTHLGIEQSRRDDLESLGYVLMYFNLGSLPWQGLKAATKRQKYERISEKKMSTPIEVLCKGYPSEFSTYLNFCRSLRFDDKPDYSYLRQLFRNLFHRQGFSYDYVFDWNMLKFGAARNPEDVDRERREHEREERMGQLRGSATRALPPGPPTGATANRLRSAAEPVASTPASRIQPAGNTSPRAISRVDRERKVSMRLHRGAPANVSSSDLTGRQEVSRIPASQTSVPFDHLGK

| inhibition [1] | inhibition [2] | inhibition [3] | inhibition [4] | IC50 [5] [nM] | inhibition [6] | inhibition [7] | inhibition [8] | inhibition [9] | inhibition [10] | inhibition [11] | inhibition [12] | inhibition [13] | inhibition [14] | inhibition [15] | SMILES |
| --- | --- | --- | --- | --- | --- | --- | --- | --- | --- | --- | --- | --- | --- | --- | --- |
| inactive | inactive | inactive | inactive | 140 | inactive | inactive | inactive | inactive | inactive | Active | inactive | inactive | inactive | inactive | Clc1cccc(CSc2ncnc3[nH]cnc23)c1 |
| inactive | inactive | inactive | inactive | 200 | inactive | inactive | inactive | inactive | inactive | Active | inactive | inactive | inactive | inactive | c1ccc(CSc2ncnc3[nH]cnc23)cc1 |

| SMILES | inhibition [1] | inhibition [2] | inhibition [3] | inhibition [4] | IC50 [5] [nM] | inhibition [6] | inhibition [7] | inhibition [8] | inhibition [9] | inhibition [10] | inhibition [11] | inhibition [12] | inhibition [13] | inhibition [14] | inhibition [15] |
| --- | --- | --- | --- | --- | --- | --- | --- | --- | --- | --- | --- | --- | --- | --- | --- |
| Brc1ccccc1CSc1ncnc2[nH]cnc12 | inactive | inactive | inactive | inactive | 270 | inactive | inactive | inactive | inactive | inactive | Active | inactive | inactive | inactive | inactive |
